# Reference: patent US20100041089A1, “IMPROVED METHOD FOR DETECTING CHEMICAL […]” (priority 2006, published 2010)
# Tested on: yeast genes (expressed mRNA)
# Experiment: DNA chip measurement of expressed mRNA of yeast genes after culture with a toxic chemical substance
# Format: cell-based, Saccharomyces cerevisiae S288C
# Details: for level of expressed mRNA in the presence of chemical substance / level in the absence of chemical substance: cultured two hours with the chemical substance; for The level of expressed mRNA in the presence of chemical substance/The level of expressed mRNA in the absence of chemical substance: cultured two hours with substance
# Procedure, shortened: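 Expression is given as treated/untreated fluorescence ratio on a whole-genome yeast DNA chip, a ratio of two or more being significant. Log-phase S288C cultures in YPD at 25 °C received the chemical for 2 h at a dose that slows growth without killing. mRNA was reverse-transcribed with Cy3- or Cy5-dUTP.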
compound,measurement,setting,value
"CCCCCCCCCCCCc1ccc(S(=O)(=O)[O-])cc1.[Na+] [(17), Sodium dodecylbenzosulfonate]","The level of expressed mRNA in the presence of chemical substance/The level of expressed mRNA in the absence of chemical substance, yeast gene YBR036C","gene YBR036C, Metabolism protein genes, DNA chip fluorescence ratio",2.1
same,"The level of expressed mRNA in the presence of chemical substance/The level of expressed mRNA in the absence of chemical substance, yeast gene YBR298C","gene YBR298C, Metabolism protein genes, DNA chip fluorescence ratio",0.9
same,"The level of expressed mRNA in the presence of chemical substance/The level of expressed mRNA in the absence of chemical substance, yeast gene YDL067C","gene YDL067C (mitochondria-located protein gene), yeast cultured two hours with chemical substance, DNA chip fluorescence ratio to control",1.2
same,"The level of expressed mRNA in the presence of chemical substance/The level of expressed mRNA in the absence of chemical substance, yeast gene YDL078C","gene YDL078C, Metabolism protein genes, DNA chip fluorescence ratio",1.1
same,"The level of expressed mRNA in the presence of chemical substance/The level of expressed mRNA in the absence of chemical substance, yeast gene YDL215C","gene YDL215C, Metabolism protein genes, DNA chip fluorescence ratio",1.1
same,"The level of expressed mRNA in the presence of chemical substance/The level of expressed mRNA in the absence of chemical substance, yeast gene YDR079W","gene YDR079W (mitochondria-located protein gene), yeast cultured two hours with chemical substance, DNA chip fluorescence ratio to control",1.1
same,"The level of expressed mRNA in the presence of chemical substance/The level of expressed mRNA in the absence of chemical substance, yeast gene YDR297W","gene YDR297W, Metabolism protein genes, DNA chip fluorescence ratio",1.9
same,"The level of expressed mRNA in the presence of chemical substance/The level of expressed mRNA in the absence of chemical substance, yeast gene YDR387C","gene YDR387C, Metabolism protein genes, DNA chip fluorescence ratio",1.2
same,"The level of expressed mRNA in the presence of chemical substance/The level of expressed mRNA in the absence of chemical substance, yeast gene YGL035C","gene YGL035C, Metabolism protein genes, DNA chip fluorescence ratio",0.9
same,"The level of expressed mRNA in the presence of chemical substance/The level of expressed mRNA in the absence of chemical substance, yeast gene YGR062C","gene YGR062C (mitochondria-located protein gene), yeast cultured two hours with chemical substance, DNA chip fluorescence ratio to control",0.9
same,"The level of expressed mRNA in the presence of chemical substance/The level of expressed mRNA in the absence of chemical substance, yeast gene YGR287C","gene YGR287C, Metabolism protein genes, DNA chip fluorescence ratio",1.0
same,"The level of expressed mRNA in the presence of chemical substance/The level of expressed mRNA in the absence of chemical substance, yeast gene YJL070C","gene YJL070C, Metabolism protein genes, DNA chip fluorescence ratio",1.1
same,"The level of expressed mRNA in the presence of chemical substance/The level of expressed mRNA in the absence of chemical substance, yeast gene YJL096W","gene YJL096W (mitochondria-located protein gene), yeast cultured two hours with chemical substance, DNA chip fluorescence ratio to control",1.1
same,"The level of expressed mRNA in the presence of chemical substance/The level of expressed mRNA in the absence of chemical substance, yeast gene YJL180C","gene YJL180C (mitochondria-located protein gene), yeast cultured two hours with chemical substance, DNA chip fluorescence ratio to control",0.9
same,"The level of expressed mRNA in the presence of chemical substance/The level of expressed mRNA in the absence of chemical substance, yeast gene YKR009C","gene YKR009C, Metabolism protein genes, DNA chip fluorescence ratio",1.9
same,"The level of expressed mRNA in the presence of chemical substance/The level of expressed mRNA in the absence of chemical substance, yeast gene YLR295C","gene YLR295C (mitochondria-located protein gene), yeast cultured two hours with chemical substance, DNA chip fluorescence ratio to control",0.9
same,"The level of expressed mRNA in the presence of chemical substance/The level of expressed mRNA in the absence of chemical substance, yeast gene YLR351C","gene YLR351C, Metabolism protein genes, DNA chip fluorescence ratio",1.3
same,"The level of expressed mRNA in the presence of chemical substance/The level of expressed mRNA in the absence of chemical substance, yeast gene YLR375W","gene YLR375W, Metabolism protein genes, DNA chip fluorescence ratio",1.0
same,"The level of expressed mRNA in the presence of chemical substance/The level of expressed mRNA in the absence of chemical substance, yeast gene YMR023C","gene YMR023C (mitochondria-located protein gene), yeast cultured two hours with chemical substance, DNA chip fluorescence ratio to control",1.1
same,"The level of expressed mRNA in the presence of chemical substance/The level of expressed mRNA in the absence of chemical substance, yeast gene YMR267W","gene YMR267W (mitochondria-located protein gene), yeast cultured two hours with chemical substance, DNA chip fluorescence ratio to control",0.9
same,"The level of expressed mRNA in the presence of chemical substance/The level of expressed mRNA in the absence of chemical substance, yeast gene YMR267W","gene YMR267W, Metabolism protein genes, DNA chip fluorescence ratio",0.9
same,"The level of expressed mRNA in the presence of chemical substance/The level of expressed mRNA in the absence of chemical substance, yeast gene YMR278W","gene YMR278W, Metabolism protein genes, DNA chip fluorescence ratio",1.0
same,"The level of expressed mRNA in the presence of chemical substance/The level of expressed mRNA in the absence of chemical substance, yeast gene YMR293C","gene YMR293C, Metabolism protein genes, DNA chip fluorescence ratio",0.8
same,"The level of expressed mRNA in the presence of chemical substance/The level of expressed mRNA in the absence of chemical substance, yeast gene YNL073W","gene YNL073W (mitochondria-located protein gene), yeast cultured two hours with chemical substance, DNA chip fluorescence ratio to control",0.8
same,"The level of expressed mRNA in the presence of chemical substance/The level of expressed mRNA in the absence of chemical substance, yeast gene YNR072W","gene YNR072W, Metabolism protein genes, DNA chip fluorescence ratio",1.3
same,"The level of expressed mRNA in the presence of chemical substance/The level of expressed mRNA in the absence of chemical substance, yeast gene YOL096C","gene YOL096C, Metabolism protein genes, DNA chip fluorescence ratio",1.2
same,"The level of expressed mRNA in the presence of chemical substance/The level of expressed mRNA in the absence of chemical substance, yeast gene YOR180C","gene YOR180C, Metabolism protein genes, DNA chip fluorescence ratio",0.9
same,"The level of expressed mRNA in the presence of chemical substance/The level of expressed mRNA in the absence of chemical substance, yeast gene YOR316C","gene YOR316C (mitochondria-located protein gene), yeast cultured two hours with chemical substance, DNA chip fluorescence ratio to control",0.8
same,"The level of expressed mRNA in the presence of chemical substance/The level of expressed mRNA in the absence of chemical substance, yeast gene YOR363C","gene YOR363C, Metabolism protein genes, DNA chip fluorescence ratio",1.3
same,"The level of expressed mRNA in the presence of chemical substance/The level of expressed mRNA in the absence of chemical substance, yeast gene YPL040C","gene YPL040C (mitochondria-located protein gene), yeast cultured two hours with chemical substance, DNA chip fluorescence ratio to control",0.8
same,"The level of expressed mRNA in the presence of chemical substance/The level of expressed mRNA in the absence of chemical substance, yeast gene YPL134C","gene YPL134C (mitochondria-located protein gene), yeast cultured two hours with chemical substance, DNA chip fluorescence ratio to control",1.3
same,"The level of expressed mRNA in the presence of chemical substance/The level of expressed mRNA in the absence of chemical substance, yeast gene YPR184W","gene YPR184W, Metabolism protein genes, DNA chip fluorescence ratio",1.0
same,level of expressed mRNA in the presence of chemical substance / level in the absence of chemical substance,yeast gene YAL018C,0.9
same,The level of expressed mRNA in the presence of chemical substance/The level of expressed mRNA in the absence of chemical substance,yeast gene YAL053W,1.2
same,level of expressed mRNA in the presence of chemical substance / level in the absence of chemical substance,yeast gene YAR047C,1.7
same,level of expressed mRNA in the presence of chemical substance / level in the absence of chemical substance,yeast gene YAR064W,0.9
same,level of expressed mRNA in the presence of chemical substance / level in the absence of chemical substance,yeast gene YBL044W,0.8
same,The level of expressed mRNA in the presence of chemical substance/The level of expressed mRNA in the absence of chemical substance,yeast gene YBL048W,1.3
same,The level of expressed mRNA in the presence of chemical substance/The level of expressed mRNA in the absence of chemical substance,yeast gene YBL107C,0.9
same,level of expressed mRNA in the presence of chemical substance / level in the absence of chemical substance,yeast gene YBR012C,1.4
same,level of expressed mRNA in the presence of chemical substance / level in the absence of chemical substance,yeast gene YBR066C,1.2
same,level of expressed mRNA in the presence of chemical substance / level in the absence of chemical substance,yeast gene YBR124W,0.9
same,level of expressed mRNA in the presence of chemical substance / level in the absence of chemical substance,yeast gene YBR162C,1.2
same,level of expressed mRNA in the presence of chemical substance / level in the absence of chemical substance,yeast gene YBR287W,3.2
same,level of expressed mRNA in the presence of chemical substance / level in the absence of chemical substance,yeast gene YCL042W,0.8
same,level of expressed mRNA in the presence of chemical substance / level in the absence of chemical substance,yeast gene YCL056C,1.2
same,level of expressed mRNA in the presence of chemical substance / level in the absence of chemical substance,yeast gene YCR007C,2.6
same,level of expressed mRNA in the presence of chemical substance / level in the absence of chemical substance,yeast gene YDL046W,1.2
same,The level of expressed mRNA in the presence of chemical substance/The level of expressed mRNA in the absence of chemical substance,yeast gene YDL072C,1.6
same,The level of expressed mRNA in the presence of chemical substance/The level of expressed mRNA in the absence of chemical substance,yeast gene YDL204W,1.8
same,The level of expressed mRNA in the presence of chemical substance/The level of expressed mRNA in the absence of chemical substance,yeast gene YDL222C,0.9
same,level of expressed mRNA in the presence of chemical substance / level in the absence of chemical substance,yeast gene YDR090C,1.1
